Key:
Cannabinoid receptor 1 [1] = target: T1, Cannabinoid receptor 1 (Homo sapiens, UniProt P21554); assay: Membranes were purchased from Perkin Elmer.
Cannabinoid receptor 2 [2] = target: T2, Cannabinoid receptor 2 (Homo sapiens, UniProt P34972); assay: (§1) cAMP Assay: The following mixtures and buffer solutions were prepared: (a) Buffer 1: HBSS (Mediatech Cat#21-023-CV) with 5 mM HEPES (1 mM stock, Gibco BRL Cat#15630-056) and 0.1% BSA (7.5% stock, Invitrogen Cat#15260-037); (b) Buffer 2: 0.5 mM IBMX (200 mM stock in DMSO, Sigma 15879) in Buffer 1; (c) 1 uM cAMP Standard (50 uM stock, Perkin Elmer Cat# AD0262) diluted in Buffer 2 and serially diluted in Buffer 2, 12 doses at 1/2 dilutions resulting in a dose range of 1 uM to 0.5 nM; (d) d2 labelled cAMP (CisBio HTRF Detection Kit Cat #62AM4PEB reconstituted with 6 ml dH2O) diluted 1/20 with lysis buffer (CisBio HTRF Detection Kit Cat #62AM4PEB); (e) anti-cAMP (CisBio HTRF Detection Kit Cat #62AM4PEB reconstituted with 5 ml dH2O) diluted 1/20 with lysis buffer (CisBio HTRF Detection Kit Cat #62AM4PEB); and (f) Forskolin (Sigma Cat# F6886, 10 mM in DMSO) diluted first in DMSO to 1 mM and then to 1.5 uM in Buffer 2.; format: functional
T2 sequence (P34972 whole entry): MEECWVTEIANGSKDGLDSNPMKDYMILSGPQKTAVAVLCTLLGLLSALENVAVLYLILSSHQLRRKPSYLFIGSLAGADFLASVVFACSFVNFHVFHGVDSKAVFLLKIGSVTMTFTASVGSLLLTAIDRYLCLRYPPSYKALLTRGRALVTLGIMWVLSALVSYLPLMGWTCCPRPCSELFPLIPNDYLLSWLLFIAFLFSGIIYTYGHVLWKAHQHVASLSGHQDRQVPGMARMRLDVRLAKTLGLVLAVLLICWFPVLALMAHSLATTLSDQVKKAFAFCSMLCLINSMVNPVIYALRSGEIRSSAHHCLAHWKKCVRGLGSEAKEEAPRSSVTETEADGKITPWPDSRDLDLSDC

Cannabinoid receptor 1 [3] = target: T1, Cannabinoid receptor 1; assay: as §1; format: functional
Cannabinoid receptor 2 [4] = target: T2, Cannabinoid receptor 2; assay: Membranes were prepared as described in FELDER, C. C., et al., Molecular Pharmacology, 1992, pp 838-845, Vol. 42.

T1 sequence (P21554 whole entry): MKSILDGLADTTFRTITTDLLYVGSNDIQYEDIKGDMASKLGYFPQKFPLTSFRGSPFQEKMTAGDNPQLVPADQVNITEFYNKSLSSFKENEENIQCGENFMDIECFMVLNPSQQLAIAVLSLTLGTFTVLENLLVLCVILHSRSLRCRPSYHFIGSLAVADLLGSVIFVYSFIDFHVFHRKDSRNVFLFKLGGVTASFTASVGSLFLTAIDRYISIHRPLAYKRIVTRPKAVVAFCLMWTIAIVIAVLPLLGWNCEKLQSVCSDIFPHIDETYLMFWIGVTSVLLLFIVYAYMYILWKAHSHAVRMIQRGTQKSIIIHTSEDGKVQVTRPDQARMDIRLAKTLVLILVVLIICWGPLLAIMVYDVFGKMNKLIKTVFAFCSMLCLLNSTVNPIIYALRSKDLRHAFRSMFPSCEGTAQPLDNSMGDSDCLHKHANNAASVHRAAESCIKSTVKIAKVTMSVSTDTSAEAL

| Compound | EC50 (Cannabinoid receptor 1 [1]) [nM] | EC50 (Cannabinoid receptor 2 [2]) [nM] | EC50 (Cannabinoid receptor 1 [3]) [nM] | EC50 (Cannabinoid receptor 2 [4]) [nM] |
| --- | --- | --- | --- | --- |
| Clc1ccc(C(c2ccc(Cl)cc2)c2ccc3nccc(/C=C/c4ccccc4)c3c2)cc1 | 4.1 | – | – | – |
| Cn1c(=O)cc(CCc2cccc(Cl)c2)c2cc(C(c3ccc(Cl)cc3)c3nccs3)ccc21 (centres undefined) | > 2500 | – | – | – |
| O=c1cc(Nc2ccc(Cc3ccccc3)cc2)c2cc(C(c3ccc(Cl)cc3)c3ccc(Cl)cc3)ccc2[nH]1 | – | > 10000 | 15 | – |
| Clc1ccc(C(c2ccc3nccc(/C=C/c4ccccc4)c3c2)c2cccs2)cc1 (centres undefined) | 97.3 | – | – | – |
| COc1ccc(C(O)(c2ccc3nccc(/C=C/c4ccccc4)c3c2)c2nccs2)cc1 (centres undefined) | 1870 | – | – | – |
| O=c1cc(/C=C/c2ccccc2)c2cc(C(c3ccc(Cl)cc3)c3nccs3)ccc2[nH]1 (centres undefined) | 34.6 | – | – | – |
| OC(c1ccc(Cl)cc1)(c1ccc(Cl)cc1)c1ccc2nccc(/C=C/c3ccccc3)c2c1 | 52.1 | – | – | – |
| O=c1cc(/C=C/c2ccccc2)c2cc(C(c3ccc(Cl)cc3)c3ccc(Cl)cc3)ccc2[nH]1 | 35.8 | – | – | – |
| Clc1ccc(C(c2ccc3nccc(/C=C/c4ccccc4)c3c2)c2nccs2)cc1 (centres undefined) | 55.1 | – | – | > 5000 |
| O=c1cc(NC2CCN(S(=O)(=O)C(F)(F)F)CC2)c2cc(C(c3ccc(Cl)cc3)c3ccc(Cl)cc3)ccc2[nH]1 | 1.2 | – | – | 53 |
| O=S(=O)(N1CCC(Nc2ccnc3c(NC4CCN(S(=O)(=O)C(F)(F)F)CC4)cc(C(c4ccc(Cl)cc4)c4ccc(Cl)cc4)cc23)CC1)C(F)(F)F | – | > 14000 | > 14000 | – |
| O=c1cc(Nc2ccc(F)c(Cl)c2)c2cc(C(c3ccc(Cl)cc3)c3ccc(Cl)cc3)ccc2[nH]1 | – | > 10000 | 10 | – |
| O=c1cc(CCc2cccc(Cl)c2)c2cc(C(O)(c3ccc(Cl)cc3)c3nccs3)ccc2[nH]1 (centres undefined) | > 2500 | – | – | – |
| N=C(N)N1CCC(Nc2cc(=O)[nH]c3ccc(C(c4ccc(Cl)cc4)c4ccc(Cl)cc4)cc23)CC1 | – | > 10000 | > 10000 | – |
| O=c1cc(NC2CCN(S(=O)(=O)C(F)(F)F)CC2)c2cc(C(c3ccc(Cl)cc3)c3nccs3)ccc2[nH]1 (centres undefined) | 4.4 | – | – | – |
| OC(c1ccc(Cl)cc1)(c1ccsc1)c1ccc2nccc(/C=C/c3ccccc3)c2c1 (centres undefined) | 223 | – | – | – |
| CCOC(=O)CCCOc1ccc(Nc2cc(=O)[nH]c3ccc(C(c4ccc(Cl)cc4)c4ccc(Cl)cc4)cc23)cc1 | – | > 10000 | 68 | – |
| O=c1cc(/C=C/c2ccc(C(F)(F)F)cc2)c2cc(C(c3ccc(Cl)cc3)c3nccs3)ccc2[nH]1 (centres undefined) | – | > 10000 | 397 | – |
| O=c1cc(CCc2cccc(Cl)c2)c2cc(C(c3ccc(Cl)cc3)c3nccs3)ccc2[nH]1 (centres undefined) | 332 | – | – | – |
| O=c1cc(/C=C/c2ccc(C(F)(F)F)cc2)c2cc(C(c3ccc(Cl)cc3)c3cccs3)ccc2[nH]1 (centres undefined) | 15.1 | – | – | > 5000 |
| O=c1cc(/C=C/c2cccc(F)c2)c2cc(C(c3ccc(Cl)cc3)c3ccsc3)ccc2[nH]1 (centres undefined) | 22 | – | – | > 5000 |
| CC(C)(C)OC(=O)CN1CCC(Nc2cc(=O)[nH]c3ccc(C(c4ccc(Cl)cc4)c4ccc(Cl)cc4)cc23)CC1 | – | > 10000 | 5 | – |
| OC(c1ccc(Cl)cc1)(c1ccc2nccc(/C=C/c3ccccc3)c2c1)c1cccs1 (centres undefined) | 101 | – | – | – |

Source: ChEMBL document CHEMBL3886543, “Quinoline derivatives useful as CB-1 inverse agonists” (2016)
